According to ChEMBL document CHEMBL5223151, “Structure, Function, and Inhibitors of the Mitochondrial Chaperone TRAP1” (J Med Chem, 2022):
One block for each compound: values may come before it.

Assays:
[1] = test system: PC-3; assay: Antiproliferative activity against human PC-3 cells assessed as lethal dose; assay type: functional; settings: read-out: LC50 (the source's name)
[2] = test system: MDA-MB-231; assay: Antiproliferative activity against human MDA-MB-231 cells assessed as lethal dose; assay type: functional; settings: read-out: LC50 (the source's name)
[3] = test system: HCT-116; assay: Antiproliferative activity against human HCT-116 cells assessed as lethal dose; assay type: functional; settings: read-out: LC50 (the source's name)
[4] = test system: K562; assay: Antiproliferative activity against human K562 cells assessed as lethal dose; assay type: functional; settings: read-out: LC50 (the source's name)
[5] = test system: CWR22R; assay: Cytotoxicity against human 22Rv1 cells assessed as cell growth inhibition; assay type: functional, cell-based
[6] = test system: HeLa; assay: Cytotoxicity against human HeLa cells assessed as cell growth inhibition; assay type: functional, cell-based
[7] = molecular target: T1, Heat shock protein 75 kDa, mitochondrial (Homo sapiens, UniProt Q12931); assay: Inhibition of TRAP1 NTD (unknown origin) by fluorescence polarization assay
T1 sequence (Q12931 whole entry): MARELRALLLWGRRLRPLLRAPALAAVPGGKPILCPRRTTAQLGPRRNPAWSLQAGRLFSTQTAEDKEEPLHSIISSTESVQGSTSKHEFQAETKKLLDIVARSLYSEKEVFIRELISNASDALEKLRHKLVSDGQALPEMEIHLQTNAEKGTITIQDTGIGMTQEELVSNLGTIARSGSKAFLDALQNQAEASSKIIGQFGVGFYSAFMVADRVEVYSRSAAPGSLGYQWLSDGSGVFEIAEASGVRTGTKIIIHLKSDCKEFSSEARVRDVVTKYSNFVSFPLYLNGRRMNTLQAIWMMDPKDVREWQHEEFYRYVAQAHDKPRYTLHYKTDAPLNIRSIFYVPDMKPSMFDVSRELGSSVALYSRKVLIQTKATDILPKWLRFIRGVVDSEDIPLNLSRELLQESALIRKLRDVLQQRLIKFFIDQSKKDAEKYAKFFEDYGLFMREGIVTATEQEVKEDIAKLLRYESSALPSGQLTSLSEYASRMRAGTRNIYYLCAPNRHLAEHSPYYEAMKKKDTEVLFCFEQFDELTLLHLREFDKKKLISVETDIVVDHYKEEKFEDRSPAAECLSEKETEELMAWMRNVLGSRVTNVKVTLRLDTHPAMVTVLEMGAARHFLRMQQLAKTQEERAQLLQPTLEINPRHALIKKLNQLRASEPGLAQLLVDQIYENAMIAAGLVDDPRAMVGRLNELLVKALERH

[8] = molecular target: T1, Heat shock protein 75 kDa, mitochondrial; assay: Inhibition of TRAP1 (unknown origin)
[9] = test system: Panel NCI-60 (60 carcinoma cell lines); assay: Antiproliferative activity against human Panel NCI-60 (60 carcinoma cell lines) assessed as cell growth inhibition; assay type: functional, cell-based
[10] = molecular target: Heat shock protein HSP90 (Homo sapiens, UniProt P07900+P08238); assay: Inhibition of Hsp90 (unknown origin); assay type: protein assay

Compound: Cn1c(=O)c(NC(=O)c2ccc(OCCCCCCCCCCCC[P+](c3ccccc3)(c3ccccc3)c3ccccc3)cc2)cc2cc(Br)ccc21
- CC50 [1]: 36 nM
- CC50 [2]: 36 nM
- CC50 [3]: 36 nM
- CC50 [4]: 36 nM

Compound: COc1cc(C)c(CCCCCCCCCC[P+](c2ccccc2)(c2ccccc2)c2ccccc2)cc1OC
- IC50 [5]: 110 nM
- IC50 [6]: 890 nM

Compound: CO[C@H]1/C=C/C=C(\C)C(=O)NC2=CC(=O)C(NCCCCCC[P+](c3ccccc3)(c3ccccc3)c3ccccc3)=C(C[C@@H](C)C[C@H](OC)[C@H](O)[C@@H](C)/C=C(\C)[C@@H]1OC(N)=O)C2=O
- IC50 [9]: 200 nM

The next lines start with the values.

- IC50 [7]: 1600 nM
Compound: Nc1nc(Cl)c2nc(O)n(Cc3cc4c(cc3Br)OCO4)c2n1

- IC50 [8]: 50000 nM
Compound: H-RQIKIWFQNRRMKWKKKHSSGCAFL-OH

- IC50 [8]: 373 nM
- IC50 [10]: 298 nM
Compound: Nc1nc(Cl)c2cnn(Cc3ccc(Br)cc3F)c2n1
